# Test results reported in the supplement of paper PMC11208160.
# Test: recombinant UMI read abundance after kanamycin selection (control-corrected) (log10(CPM+1)); higher = more efficient recombination; extreme values may be limits of the assay; sequences stand for … in AGTGCAGAGAAAATCGGCCAGTTTTCTCTGCCTGCAGTCCGCATGCCGTGGGACCCCTTGGGTTCTAACCTGTTGCCTAGATTTATGCAGCGGACTGCCTTTCTCCCAAAGTGATAAACCGG…AGGTTGGTTTCACT; site = the 11-nt donor
# Method in brief: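 Two replicates each of selected and unselected plating were used in this pooled Escherichia coli screen of donor and donor-binding-loop pairs for the IS621 bridge recombinase. Selection was with IPTG (0.07 mM) and kanamycin. Counts of recombinant UMIs, amplified across the donor–target junction, were converted to CPM, averaged, scaled by control-derived factors and reported as log10(CPM+1).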
# 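Also: IS621 bridge recombinase in Escherichia coli cells against a fixed T5 target plasmid.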
row,Sequence,recombinant UMI read abundance (log10)
1,GGTACGTCATGGACCGGTTTTCCCGGTAATCCGTATTTGTT (site GGTACGCCTAA),0.0208
2,GGTACGTCATGGACCGGTTTTCCCGGTAATCCGTATTTGTT (site GGTACGGCTAA),0.0154
3,GGTACGTCATGGACCGGTTTTCCCGGTAATCCGTATTTGTT (site GGTACGTCTAA),0.31
4,GGTACGTCATGGACCGGTTTTCCCGGTAATCCGTATTTGTT (site GGTACGTCTAC),0
5,GGTACGTCATGGACCGGTTTTCCCGGTAATCCGTATTTGTT (site GGTACGTCTAG),0
6,GGTACGTCATGGACCGGTTTTCCCGGTAATCCGTATTTGTT (site GGTACGTCTAT),0
7,GGTACGTCATGGACCGGTTTTCCCGGTAATCCGTATTTGTT (site GGTACGTCTCA),0.0191
8,GGTACGTCATGGACCGGTTTTCCCGGTAATCCGTATTTGTT (site GGTACGTCTGA),0
9,GGTACGTCATGGACCGGTTTTCCCGGTAATCCGTATTTGTT (site GGTACGTCTTA),0.0065
10,GGTACGTCATGGACCGGTTTTCCCGGTAATCCGTATTTGTT (site GGTACTTCTAA),0
11,GGTACGTCATGGACCGGTTTTCCCGGTAATCCGTATTTGTT (site GGTAGGTCTAA),0.00929
12,GGTACGTCATGGACCGGTTTTCCCGGTAATCCGTATTTGTT (site GGTATGTCTAA),0.00457
13,GGTACGTCATGGACCGGTTTTCCCGGTAATCCGTATTTGTT (site GGTCCGTCTAA),0.0113
14,GGTACGTCATGGACCGGTTTTCCCGGTAATCCGTATTTGTT (site GGTGCGTCTAA),0.00982
15,GGTACGTCATGGACCGGTTTTCCCGGTAATCCGTATTTGTT (site GGTTCGTCTAA),0
16,GGTACGTCATGGACCGGTTTTCCCGGTAATCCGTATTTGTT (site GTTACGTCTAA),0.0263
17,GGTACGTCATGGACCGGTTTTCCCGGTAATCCGTATTTGTT (site TGTACGTCTAA),0.0329
18,GGTACTTCATGGACCGGTTTTCCCGGTAATCCGTATTTGAT (site GGTACTTCTAT),0.4
19,GGTAGAACATGGACCGGTTTTCCCGGTAATCCGTATTTGTA (site GGTAGAACTTA),1.39
20,GGTAGCGCATGGACCGGTTTTCCCGGTAATCCGTATTTGTT (site GGTAGCGCTAA),1.5
21,GGTCAAACATGGACCGGTTTTCCCGGTAATCCGTATTTGTA (site GGTCAAACTTA),0.645
22,GGTCAAACATGGACCGGTTTTCCCGGTAATCCGTATTTGTA (site GGTCCAACTTA),0.0193
23,GGTCAAACATGGACCGGTTTTCCCGGTAATCCGTATTTGTA (site GGTCGAACTTA),0.00424
24,GGTCAAACATGGACCGGTTTTCCCGGTAATCCGTATTTGTA (site GGTCTAACTTA),0.0103
25,GGTCACGCATGGACCGGTTTTCCCGGTAATCCGTATTTGTC (site GGTCACGCTGA),2.56

row,Sequence,recombinant UMI read abundance (log10)
1,GGTCAGTCATGGACCGGTTTTCCCGGTAATCCGTATTTGGA (site GGTCAGTCTTC),0.503
2,GGTCCAACATGGACCGGTTTTCCCGGTAATCCGTATTTGAT (site GGTCCAACTAT),0
3,GGTCCAACATGGACCGGTTTTCCCGGTAATCCGTATTTGGA (site GGTCCAACTTA),0.00455
4,GGTCCAACATGGACCGGTTTTCCCGGTAATCCGTATTTGGA (site GGTCCAACTTC),0.0919
5,GGTCCAACATGGACCGGTTTTCCCGGTAATCCGTATTTGGA (site GGTCCAACTTG),0.0106
6,GGTCCAACATGGACCGGTTTTCCCGGTAATCCGTATTTGGA (site GGTCCAACTTT),0.00506
7,GGTCCAACATGGACCGGTTTTCCCGGTAATCCGTATTTGTC (site GGTCCAACTAA),0.015
8,GGTCCAACATGGACCGGTTTTCCCGGTAATCCGTATTTGTC (site GGTCCAACTCA),0.00327
9,GGTCCAACATGGACCGGTTTTCCCGGTAATCCGTATTTGTC (site GGTCCAACTGA),0
10,GGTCCAACATGGACCGGTTTTCCCGGTAATCCGTATTTGTC (site GGTCCAACTTA),0.035
11,GGTCCACCATGGACCGGTTTTCCCGGTAATCCGTATTTGTA (site GGTCCAACTTA),0.0242
12,GGTCCACCATGGACCGGTTTTCCCGGTAATCCGTATTTGTA (site GGTCCACCTTA),0.0126
13,GGTCCACCATGGACCGGTTTTCCCGGTAATCCGTATTTGTA (site GGTCCAGCTTA),0.0357
14,GGTCCACCATGGACCGGTTTTCCCGGTAATCCGTATTTGTA (site GGTCCATCTTA),0.0355
15,GGTCCAGCATGGACCGGTTTTCCCGGTAATCCGTATTTGAA (site GGTCCAGCTTT),0.307
16,GGTCCAGCATGGACCGGTTTTCCCGGTAATCCGTATTTGTA (site GGTCCAACTTA),0
17,GGTCCAGCATGGACCGGTTTTCCCGGTAATCCGTATTTGTA (site GGTCCACCTTA),0.00451
18,GGTCCAGCATGGACCGGTTTTCCCGGTAATCCGTATTTGTA (site GGTCCAGCTTA),1.56
19,GGTCCAGCATGGACCGGTTTTCCCGGTAATCCGTATTTGTA (site GGTCCATCTTA),0.0161
20,GGTCCGTCATGGACCGGTTTTCCCGGTAATCCGTATTTGTT (site GGTACGTCTAA),0.00692
21,GGTCCGTCATGGACCGGTTTTCCCGGTAATCCGTATTTGTT (site GGTCCGTCTAA),0.00423
22,GGTCCGTCATGGACCGGTTTTCCCGGTAATCCGTATTTGTT (site GGTGCGTCTAA),0.0122
23,GGTCCGTCATGGACCGGTTTTCCCGGTAATCCGTATTTGTT (site GGTTCGTCTAA),0.0141
24,GGTCGAACATGGACCGGTTTTCCCGGTAATCCGTATTTGTA (site GGTCAAACTTA),0.0946
25,GGTCGAACATGGACCGGTTTTCCCGGTAATCCGTATTTGTA (site GGTCCAACTTA),0.00781

row,Sequence,recombinant UMI read abundance (log10)
1,GGTCGAACATGGACCGGTTTTCCCGGTAATCCGTATTTGTA (site GGTCGAACTTA),0.761
2,GGTCGAACATGGACCGGTTTTCCCGGTAATCCGTATTTGTA (site GGTCTAACTTA),0.00734
3,GGTGACCCATGGACCGGTTTTCCCGGTAATCCGTATTTGCA (site GGTGACCCTTG),0.706
4,GGTGCAGCATGGACCGGTTTTCCCGGTAATCCGTATTTGGA (site GGTGCAGCTTC),0.0152
5,GGTGCCACATGGACCGGTTTTCCCGGTAATCCGTATTTGGT (site GGTGCCACTAC),0.406
6,GGTGCGACATGGACCGGTTTTCCCGGTAATCCGTATTTGTT (site GGTGCGACTAA),0.345
7,GGTGCTACATGGACCGGTTTTCCCGGTAATCCGTATTTGGA (site GGTGCTACTTC),0.449
8,GGTGGTCCATGGACCGGTTTTCCCGGTAATCCGTATTTGCC (site GGTGGTCCTGG),0
9,GGTGTCCCATGGACCGGTTTTCCCGGTAATCCGTATTTGAA (site GGTGTCCCTTT),0.0114
10,GGTGTGGCATGGACCGGTTTTCCCGGTAATCCGTATTTGTT (site GGTGTGGCTAA),0.894
11,GGTGTTTCATGGACCGGTTTTCCCGGTAATCCGTATTTGGT (site GGTGTTTCTAC),0.556
12,GGTTAAACATGGACCGGTTTTCCCGGTAATCCGTATTTGGT (site GGTTAAACTAC),0.137
13,GGTTAGGCATGGACCGGTTTTCCCGGTAATCCGTATTTGAG (site GGTTAGGCTCT),0.952
14,GGTTATCCATGGACCGGTTTTCCCGGTAATCCGTATTTGCT (site GATTATCCTAG),0
15,GGTTATCCATGGACCGGTTTTCCCGGTAATCCGTATTTGCT (site GCTTATCCTAG),0.196
16,GGTTATCCATGGACCGGTTTTCCCGGTAATCCGTATTTGCT (site GGTTATCCTAG),0
17,GGTTATCCATGGACCGGTTTTCCCGGTAATCCGTATTTGCT (site GTTTATCCTAG),0
18,GGTTCGCCATGGACCGGTTTTCCCGGTAATCCGTATTTGCG (site GGTTCGCCTCG),0
19,GGTTGCCCATGGACCGGTTTTCCCGGTAATCCGTATTTGAT (site GATTGCCCTAT),0.0175
20,GGTTGCCCATGGACCGGTTTTCCCGGTAATCCGTATTTGAT (site GCTTGCCCTAT),0.0066
21,GGTTGCCCATGGACCGGTTTTCCCGGTAATCCGTATTTGAT (site GGTTGCCCTAT),0.0592
22,GGTTGCCCATGGACCGGTTTTCCCGGTAATCCGTATTTGAT (site GTTTGCCCTAT),0.0119
23,GGTTTACCATGGACCGGTTTTCCCGGTAATCCGTATTTGGG (site GGTTTACCTCC),0.0308
24,GTAAAAGCATGGACCGGTTTTCCCGGTAATCCGTATTTGCC (site GTAAAAGCTGG),1.27
25,GTAAAGTCATGGACCGGTTTTCCCGGTAATCCGTATTTGCA (site GTAAAGTCTTG),2.95
